# According to patent US10858360B2, “Tricyclic gyrase inhibitors” (priority 2011, dated 2020):
# Where two headings read alike, the source gives them in different places.
# Experiments:
# S. aureus ATCC 13709 = test: MIC, S. aureus ATCC 13709 (Alamar Blue broth microdilution); format: cell-based; conditions: for MIC: Staphylococcus aureus, ATCC13709, S. aureus
# E. coli ATCC 25922 = test: MIC, E. coli ATCC 25922; format: cell-based; conditions: for MIC: Escherichia coli, ATCC25922, E. coli
# [1] = S. aureus, Alamar Blue read after overnight incubation at 35° C.
# [2] = E. coli, Alamar Blue read after overnight incubation at 35° C.
# [3] = Alamar Blue read after overnight incubation at 35° C.
Compound,MIC Sa (S. aureus ATCC 13709; [1]) [µg/mL],MIC Ec (E. coli ATCC 25922; [2]) [µg/mL],MIC (S. aureus ATCC 13709; [3]) [µg/mL],MIC (E. coli ATCC 25922; [3]) [µg/mL],other results
CNc1cc(F)cc2c1[nH]c1nc(Oc3ccc4sc(C)nc4c3)nc(N3CC4CCC(N)C4C3)c12 (stereo not drawn) [4.322],≤0.5,≤0.5,,,
CNc1cc(F)cc2c1[nH]c1nc(Oc3cncc(-c4cncnc4)c3)nc(N3CC4C(N)C4C3)c12 (stereo not drawn) [4.205],,,≤ 0.5,≤ 0.5,
CNc1cccc2c1[nH]c1nc(Oc3cnc(C)nc3)nc(N3CC4C(C3)C4NCCC#N)c12 (stereo not drawn) [3.11],,,≤ 0.5,2,
CNc1cc(F)cc2c1[nH]c1nc(Oc3cnc(C4CC4)nc3)nc(N3CC4C(CN)C4C3)c12 (stereo not drawn) [4.249],,,≤ 0.5,≤ 0.5,
CNc1cc(F)cc2c1[nH]c1nc(Oc3cncc(-c4nnnn4C)c3)nc(N3CC4CC(N)C4C3)c12 (mixture of isomers) [4.171],≤0.5,4,,,
CNc1cc(F)cc2c1[nH]c1nc(Oc3cnc4cccnc4c3)nc(N3CC4CC4(N)C3)c12 (stereo not drawn) [4.036],,,≤ 0.5,≤ 0.5,
CNc1cc(F)cc2c1[nH]c1nc(Oc3cnc(C)nc3)nc(N3CC(N4CC(N)C4)C3)c12 [4.158],≤0.5,4,,,
CNc1cc(F)cc2c1[nH]c1nc(Oc3cnc(C(C)(C)C)nc3)nc(N3CC4CC3C[C@H]4N)c12 (stereo partly drawn) [4.441],,,≤ 0.5,≤ 0.5,
CNc1cccc2c1[nH]c1nc(Oc3cncc(C#N)c3)nc(N3CCN(CCN4CCOCC4)CC3)c12 [3.59],,,4,> 64,
CNc1cccc2c1[nH]c1nc(Sc3cnc4nccnc4c3)nc(N3CC[C@H](N)C3)c12 [1.15],,,1,2,
CNc1cc(F)cc2c1[nH]c1nc(Oc3ccc4c(c3)C(=O)NC43CC3)nc(N3CC4CC(N)C4C3)c12 (stereo not drawn) [4.381],4,16,,,
CNc1cc(F)c(C)c2c1[nH]c1nc(Oc3cnc(C)nc3)nc(NC3CCCCC3N)c12 (stereo not drawn) [6.22],,,,,MIC Sa (S. aureus ATCC 13709): >16 µg/mL; MIC Ec (E. coli ATCC 25922): >16 µg/mL
CNc1cc(F)cc2c1[nH]c1nc(Oc3cnc(C(N)=O)nc3)nc(N3C[C@H]4C[C@@H](N)[C@H]4C3)c12 [4.374],,,≤ 0.5,4,
CNc1cc(F)cc2c1[nH]c1nc(Oc3cnc(C)nc3)nc(N3CC(NC(=O)C(C)NC(=O)C(C)N)C4(CC4)C3)c12 (stereo not drawn) [4.145],1,8,,,
CNc1cc(F)cc2c1[nH]c1nc(Oc3cnc(C)nc3)nc(N3CCC4(CCC4N)CC3)c12 (stereo not drawn) [4.139],≤0.5,≤0.5,,,
CNc1cccc2c1[nH]c1nc(Oc3cncnc3)nc(N3CC(F)[C@@H](N)C3)c12 (stereo partly drawn) [3.63],,,≤ 0.5,8,
Nc1cccc2c1[nH]c1nc(Sc3cnc4ccc[n+]([O-])c4c3)nc(N3CC4C(N)C4C3)c12 (stereo not drawn) [1.8],,,64,> 64,
CNc1cc(F)cc2c1[nH]c1nc(Oc3cnc(CN)nc3)nc(N3CC4CC(N)C4C3)c12 (stereo not drawn) [4.394],≤0.5,≤0.5,,,
CNc1cc(F)cc2c1[nH]c1nc(Oc3cncc(Cl)c3)nc(N3CC(N)C3)c12 [4.277],,,≤ 0.5,≤ 0.5,
CNc1cccc2c1[nH]c1nc(Oc3cncc(C#N)c3)nc(N3CCC(CN)C3)c12 (stereo not drawn) [3.57],,,1,8,
CNc1cc(F)cc2c1[nH]c1nc(Oc3cnc(N)nc3)nc(N3CCC4(CC4N)C3)c12 (mixture of isomers) [4.174],≤0.5,≤0.5,,,

Compound,MIC Sa (S. aureus ATCC 13709; [1]) [µg/mL],MIC Ec (E. coli ATCC 25922; [2]) [µg/mL],MIC (S. aureus ATCC 13709; [3]) [µg/mL],MIC (E. coli ATCC 25922; [3]) [µg/mL],other results
CNc1ncnc2c1[nH]c1nc(Oc3cncnc3)nc(Oc3cncnc3)c12 [7.10],,,> 64,> 64,
CNc1cc(F)cc2c1[nH]c1nc(Oc3ccc4cncnc4c3)nc(N3CC4[C@H](N)C[C@]4(C)C3)c12 (stereo partly drawn) [4.366],,,≤ 0.5,1,
CNc1cc(F)cc2c1[nH]c1nc(Oc3cnc(C)nc3)nc(-c3cccnc3N)c12 [4.448],,,≤ 0.5,1,
CNc1cc(F)cc2c1[nH]c1nc(Oc3cnc(C#N)c(C)c3)nc(N3C[C@H](N)C4(CC4)C3)c12 [4.324],≤0.5,≤0.5,,,
CNc1cc(F)cc2c1[nH]c1nc(Sc3cnc4ccc[n+]([O-])c4c3)nc(N3CC(N)C4(CC4)C3)c12 (stereo not drawn) [1.63],,,≤ 0.5,≤ 0.5,
CNc1cccc2c1[nH]c1nc(Oc3cncc(C(=O)O)c3)nc(N3CC4C(N)C4C3)c12 (stereo not drawn) [3.20],,,> 8,> 8,
CNNc1cc(F)cc2c1[nH]c1nc(Oc3cnc(C)nc3)nc(N3CC4C(N)C4C3)c12 (stereo not drawn) [2.1],≤0.5,>16,,,
CNc1cc(F)cc2c1[nH]c1nc(Oc3cnc(C)nc3)nc(N3CC4CC(N)C3C4)c12 (stereo not drawn) [4.154],2,16,,,
CNc1cc(F)cc2c1[nH]c1nc(Oc3cncc(-c4nnn(C)n4)c3)nc(N3CC4C(N)C4C3)c12 (stereo not drawn) [4.210],≤0.5,1,,,
CNc1cc(F)cc2c1[nH]c1nc(Oc3cnc(C)nc3)nc(N3CC4CNC4C3)c12 (stereo not drawn) [4.067],,,≤ 0.5,≤ 0.5,
CNc1cc(F)cc2c1[nH]c1nc(Oc3cc(O)c4c(C)cc(=O)oc4c3)nc(N3CC4CC(N)C4C3)c12 (stereo not drawn) [4.382],1,16,,,
NC1CCN(c2nc(Sc3cnc4nccnc4c3)nc3[nH]c4ccccc4c23)C1 (stereo not drawn) [1.6],,,32,> 64,
CNc1cc(F)cc2c1[nH]c1nc(Oc3cnc(C4CC4)nc3)nc(N3CCC(N)C3)c12 (stereo not drawn) [4.243],≤0.5,≤0.5,,,
Nc1cccc2c1[nH]c1nc(Oc3cnc4cccnc4c3)nc(N3CC4C(N)C4C3)c12 (stereo not drawn) [2.8],16,>64,,,
CNc1cccc2c1[nH]c1nc(Sc3cnc4cccnc4c3)nc(N3CC4C(C3)C4(N)CO)c12 (stereo not drawn) [1.30],,,16,> 64,
CNc1cccc2c1[nH]c1nc(Sc3cnc4cccnc4c3)nc(N3CCC4(CCNCC4)C3)c12 [1.56],,,4,32,
CNc1cc(F)cc2c1[nH]c1nc(Oc3ccc4c(N)nc(C)nc4c3)nc(N3CC4C(N)C4C3)c12 (stereo not drawn) [4.288],4,>16,,,
CCCc1ncc(Oc2nc(N3C[C@H](N)C4(CC4)C3)c3c(n2)[nH]c2c(NC)cc(F)cc23)cn1 [4.304],,,≤ 0.5,≤ 0.5,
CNc1cccc2c1[nH]c1nc(Oc3cncnc3)nc(N3CCC[C@@H](N)C3)c12 [3.16],,,4,4,
CNc1cc(F)cc2c1[nH]c1nc(Oc3cnc4cccnc4c3)nc(N3CC4C[C@@H](N)C[C@H]4C3)c12 (stereo partly drawn) [4.046],,,≤ 0.5,1,
CNc1ncnc2c1[nH]c1nc(Oc3cncc(F)c3)nc(N3CC4C(N)C4C3)c12 (stereo not drawn) [7.04],,,8,32,

Compound,MIC Sa (S. aureus ATCC 13709; [1]) [µg/mL],MIC Ec (E. coli ATCC 25922; [2]) [µg/mL],MIC (S. aureus ATCC 13709; [3]) [µg/mL],MIC (E. coli ATCC 25922; [3]) [µg/mL],other results
CNc1cc(F)cc2c1[nH]c1nc(Oc3ccc4c(c3)C(=O)NC4)nc(N3CC4[C@H](C[C@H]4N)C3)c12 (stereo partly drawn) [4.267],,,≤ 0.5,4,
CNc1cccc2c1[nH]c1nc(Sc3cnc4ccc[n+]([O-])c4c3)nc(N3CC(CN)C3)c12 [1.20],,,4,16,
CNc1cc(F)cc2c1[nH]c1nc(Oc3cnc(C)nc3)nc(-c3cc(CN)ccc3F)c12 [4.421],,,2,8,
CNc1cccc2c1[nH]c1nc(Sc3cnc4ccc[n+]([O-])c4c3)nc(N3CC4CNC4C3)c12 (stereo not drawn) [1.32],,,≤ 0.5,4,
CNc1cc(F)cc2c1[nH]c1nc(Oc3cnc(C)nc3)nc(N3CC4C(N)CC4(C)C3)c12 (stereo not drawn) [4.150],≤0.5,1,,,
CNc1cc(F)cc2c1[nH]c1nc(Oc3cncc(SC)c3)nc(N3C[C@H](N)C4(CC4)C3)c12 [4.354],,,≤ 0.5,1,
CNc1cc(F)cc2c1[nH]c1nc(Oc3cnc(C)nc3)nc(N3CC(CN)C3)c12 [4.143],≤0.5,2,,,
CNc1cc(F)cc2c1[nH]c1nc(Oc3cncnc3)nc(N3CC4CC4(N)C3)c12 (stereo not drawn) [4.005],,,≤ 0.5,≤ 0.5,
CNc1cc(F)cc2c1[nH]c1nc(Oc3cncc(-c4nnnn4C)c3)nc(N3CC4C(N)C4C3)c12 (stereo not drawn) [4.168],,,≤ 0.5,2,
CNc1cc(F)cc2c1[nH]c1nc(Oc3cnc(C)nc3)nc(N3CC4CC3CC4N)c12 (stereo not drawn) [4.128],≤0.5,4,,,
CNc1cc(F)cc2c1[nH]c1nc(Oc3cncc(Cl)c3)nc(N3CC4C[C@@H](N)C4C3)c12 (stereo partly drawn) [4.274],,,≤ 0.5,≤ 0.5,
CNc1cc(F)cc2c1[nH]c1nc(Oc3cnc(C)nc3)nc(C3=CCNCC3)c12 [4.162],8,>16,,,
CNc1ccc(C)c2c1[nH]c1nc(Sc3cnc4ccc[n+]([O-])c4c3)nc(N3CC4C(N)C4C3)c12 (stereo not drawn) [1.73],,,≤ 0.5,8,
CNc1cc(F)cc2c1[nH]c1nc(Oc3cnc4c(c3)ncn4C)nc(N3CC4CC3CC4N)c12 (stereo not drawn) [4.228],≤0.5,1,,,
CNc1cc(F)cc2c1[nH]c1nc(Oc3cnc(N)nc3)nc(N3CCCC(N)C3)c12 (stereo not drawn) [4.180],1,8,,,
CNc1cc(F)cc2c1[nH]c1nc(Oc3cncnc3)nc(N3CC4CC3C4CN)c12 (stereo not drawn) [4.030],2,16,,,
CNc1cc(F)cc2c1[nH]c1nc(Oc3cncc([S+](C)[O-])c3)nc(N3CC4C[C@@H](N)C4C3)c12 (stereo partly drawn) [4.353],,,≤ 0.5,2,
CNc1cccc2c1[nH]c1nc(Oc3cnc(C)nc3)nc(N3C[C@H](N)C4(CC4)C3)c12 [3.49],,,≤ 0.5,≤ 0.5,
CNc1cc(F)cc2c1[nH]c1nc(Oc3cnc4cccnc4c3)nc(N3CC4CCN[C@H]4C3)c12 (stereo partly drawn) [4.044],,,≤ 0.5,≤ 0.5,
Nc1cccc2c1[nH]c1nc(Sc3cnc4cccnc4c3)nc(N3CC4C(N)C4C3)c12 (stereo not drawn) [1.9],,,64,> 64,
COc1cccc2c1[nH]c1nc(Oc3cccc(C#N)c3)nc(N3CC4C(N)C4C3)c12 (stereo not drawn) [2.12],16,>64,,,
